The source of these data is article PMC5405074, “Receptor-Mediated Melanoma Targeting with Radiolabeled α-Melanocyte-Stimulating Hormone: Relevance of the Net Charge of the Ligand” (Frontiers in Endocrinology, 2017).

The subject of one data set is B16-F1 cells. Description: Internalization by cultured B16-F1 cells. Format: cell-based, mouse. The following applies: 37°C, 0.5, 2 and 3.5 h, 74 kBq radioligand. As to the method: B16-F1 cells were seeded in six-well plates and incubated overnight in MEM at 37°C. For the internalization experiments, MEM was replaced by 1 mL MBM (see above) as internalization buffer. After a 1-h incubation at 37°C, 74 kBq of radioligand (^111In-labeled peptides) was added, and the plates were incubated for different time periods. Non-specific internalization was determined by addition of 50 µL of a 1 µM α-MSH solution to the incubation mixture. After the desired incubation times, the cells were extensively washed with MBM kept at 37°C to remove excess radioligand. Incubation in 2 mL ice-cold acid buffer (acetate-buffered Hank’s balanced salt solution, pH 5) for 10 min allowed dissociation of surface-bound ligand. After collection of the acid buffer fraction, the cells were rinsed once with cold MBM, and the washings were pooled with the acid buffer fraction. The cells were washed again with MBM kept at 37°C, lysed in a 1% Triton X-100 solution, and finally transferred to tubes for quantification. The radioactivity of all collected fractions was measured in a γ-counter. A counting plate underwent the same treatment as the plate incubated for the longest time, but its cells were detached with 0.02% EDTA in PBS instead of being lysed with the Triton X-100 solution. Cells from three wells were collected, counted, and thus allowed for normalization of the results obtained. Results were expressed as percent of the added dose per million cells.
Figure 3 Determination of internalization of [^111In] DOTA-NAP-D-Asp-D-Asp (A) and [^111In]DOTA-Phospho-MSH2-9 (B) by cultured B16-F1 cells exposed to the peptides at 37°C for 0.5, 2, and 3.5 h. Surface-bound radioligand was released by an acid buffer wash, and internalized radioligand was determined by lysing cells with detergent. Results are expressed in percent of the added dose per million cells.

For data set [1] the following is noted: in vivo; cited from earlier work.

Non-standard residues stand in square brackets, D forms with d. Residues, ends and D or L forms follow the SMILES beside them. *: point of attachment. DOTA = O=C(O)CN1CCN(CC(=O)O)CCN(CC(=O)*)CCN(CC(=O)O)CC1; Nle = CCCC[C@H](N)C(=O)O

In the case of `CCCC[C@H](NC(C)=O)C(=O)N[C@@H](CC(=O)O)C(=O)N[C@@H](Cc1c[nH]cn1)C(=O)N[C@H](Cc1ccccc1)C(=O)N[C@@H](CCCNC(=N)N)C(=O)N[C@@H](Cc1c[nH]c2ccccc12)C(=O)NCC(=O)N[C@@H](CCCCNC(=O)CN1CCN(CC(=O)O)CCN(CC(=O)O)CCN(CC(=O)O)CC1)C(=O)N[C@H](CC(=O)O)C(=O)N[C@H](CC(=O)O)C(=O)O` [DOTA-NAP-D-Asp-D-Asp, Ac-Nle-Asp-His-D-Phe-Arg-Trp-Gly-Lys(DOTA)-D-Asp-D-Asp-OH] (Ac-[Nle]DH[dF]RWGK(DOTA)[dD][dD]-OH), the “Internalization profile (in words)” value in the data set with B16-F1 cells is listed as “rapid internalization”.

Regarding `CCCC[C@H](NC(C)=O)C(=O)N[C@@H](CC(=O)O)C(=O)N[C@@H](Cc1c[nH]cn1)C(=O)N[C@H](Cc1ccccc1)C(=O)N[C@@H](CCCNC(=N)N)C(=O)N[C@@H](Cc1c[nH]c2ccccc12)C(=O)NCC(=O)N[C@@H](CCCCNC(=O)CN1CCN(CC(=O)O)CCN(CC(=O)O)CCN(CC(=O)O)CC1)C(N)=O` [DOTA-NAP-amide, [Ac-Nle^4,Asp^5,D-Phe^7,Lys^11(DOTA)]-α-MSH4-11, reference compound], in data set [1], the “Tumor and non-tumor tissue uptake (in words)” value is recorded as “highest tumor uptake paired with minimal non-tumor tissue uptake, except for the kidneys”.
